Assay results: ChEMBL document CHEMBL1201862, “PubChem BioAssay data set” (2004)
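Five concentrations, 48 hours, 96-well plates. GI50: concentration for 50% inhibition of growth.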 The source made the active and inactive calls. No stated cut-off is given here; in the data, active = GI50 up to about 1.1 µM and inactive = higher.

How the values were obtained:
Experiment in all cases: NCI-60 cell line screen, 48 h
SK-MEL-2 = system: SK-MEL-2
U-251 = system: U-251
HCT-116 = system: HCT-116
TK-10 = system: TK-10
DU-145 = system: DU-145
HT-29 = system: HT-29
UACC-257 = system: UACC-257
SF-268 = system: SF-268
KM12 = system: KM12
HCC 2998 = system: HCC 2998
MCF7 = system: MCF7
SW-620 = system: SW-620
ACHN = system: ACHN
PC-3 = system: PC-3
HL-60 = system: HL-60
IGROV-1 = system: IGROV-1
HOP-92 = system: HOP-92
OVCAR-4 = system: OVCAR-4
CCRF-CEM = system: CCRF-CEM
SF-295 = system: SF-295
COLO 205 = system: COLO 205
A549 = system: A549
786-0 = system: 786-0
NCI-H522 = system: NCI-H522
SN12C = system: SN12C
Hs-578T = system: Hs-578T
UO-31 = system: UO-31
SNB-19 = system: SNB-19
HCT-15 = system: HCT-15
SR = system: SR
SK-OV-3 = system: SK-OV-3
Malme-3M = system: Malme-3M
SK-MEL-28 = system: SK-MEL-28
NCI-H460 = system: NCI-H460
NCI/ADR-RES = system: NCI/ADR-RES
K562 = system: K562
MOLT-4 = system: MOLT-4
HOP-62 = system: HOP-62
MDA-MB-231 = system: MDA-MB-231
LOX IMVI = system: LOX IMVI
OVCAR-3 = system: OVCAR-3
CAKI-1 = system: CAKI-1
SNB-75 = system: SNB-75
A498 = system: A498
OVCAR-8 = system: OVCAR-8
SK-MEL-5 = system: SK-MEL-5
T47D = system: T47D
UACC-62 = system: UACC-62
RXF 393 = system: RXF 393
NCI-H226 = system: NCI-H226
EKVX = system: EKVX
MDA-N = system: MDA-N
NCI-H23 = system: NCI-H23
RPMI-8226 = system: RPMI-8226
SF-539 = system: SF-539
MDA-MB-435 = system: MDA-MB-435
OVCAR-5 = system: OVCAR-5
M14 = system: M14

SMILES: N#CC(C#N)=C/C=C/c1ccccc1[N+](=O)[O-]
- GI50 (SK-MEL-2): > 10 µM (inactive)
- GI50 (U-251): > 10 µM (inactive)
- GI50 (HCT-116): 1.87 µM (inactive)
- GI50 (TK-10): > 10 µM (inactive)
- GI50 (DU-145): > 10 µM (inactive)
- GI50 (HT-29): 6.62 µM (inactive)
- GI50 (UACC-257): 2.68 µM (inactive)
- GI50 (SF-268): > 10 µM (inactive)
- GI50 (KM12): 5.02 µM (inactive)
- GI50 (HCC 2998): > 10 µM (inactive)
- GI50 (MCF7): 3.95 µM (inactive)
- GI50 (SW-620): 4.08 µM (inactive)
- GI50 (ACHN): 4.26 µM (inactive)
- GI50 (PC-3): 5.06 µM (inactive)
- GI50 (HL-60): 6.05 µM (inactive)
- GI50 (IGROV-1): > 10 µM (inactive)
- GI50 (HOP-92): 5.08 µM (inactive)
- GI50 (OVCAR-4): 6 µM (inactive)
- GI50 (CCRF-CEM): 7.57 µM (inactive)
- GI50 (SF-295): > 10 µM (inactive)
- GI50 (COLO 205): 3.93 µM (inactive)
- GI50 (A549): > 10 µM (inactive)
- GI50 (786-0): 3.33 µM (inactive)
- GI50 (NCI-H522): 3.33 µM (inactive)
- GI50 (SN12C): > 10 µM (inactive)
- GI50 (Hs-578T): 3.48 µM (inactive)
- GI50 (UO-31): 5.78 µM (inactive)
- GI50 (SNB-19): > 10 µM (inactive)
- GI50 (HCT-15): 7.08 µM
- GI50 (SR): 3.54 µM (inactive)
- GI50 (SK-OV-3): > 10 µM (inactive)
- GI50 (Malme-3M): 3.73 µM (inactive)
- GI50 (SK-MEL-28): 2.11 µM (inactive)
- GI50 (NCI-H460): 9.57 µM (inactive)
- GI50 (NCI/ADR-RES): 2.16 µM (inactive)
- GI50 (K562): 3.21 µM (inactive)
- GI50 (MOLT-4): 4.54 µM (inactive)
- GI50 (HOP-62): > 10 µM (inactive)
- GI50 (MDA-MB-231): 2.59 µM (inactive)
- GI50 (LOX IMVI): 2.52 µM (inactive)
- GI50 (OVCAR-3): 4.98 µM (inactive)
- GI50 (CAKI-1): 5.04 µM (inactive)
- GI50 (SNB-75): > 10 µM (inactive)
- GI50 (A498): > 10 µM (inactive)
- GI50 (OVCAR-8): 1.96 µM (inactive)
- GI50 (SK-MEL-5): 3.74 µM (inactive)
- GI50 (T47D): > 10 µM (inactive)
- GI50 (UACC-62): 3 µM (inactive)
- GI50 (RXF 393): 2.31 µM (inactive)
- GI50 (NCI-H226): > 10 µM (inactive)
- GI50 (EKVX): > 10 µM (inactive)
- GI50 (MDA-N): 2.44 µM (inactive)
- GI50 (NCI-H23): 4.45 µM (inactive)
- GI50 (RPMI-8226): 3.19 µM (inactive)
- GI50 (SF-539): 6.76 µM (inactive)

SMILES: C[n+]1c(-c2ccc(/C=N/NC(=S)N/N=C/c3ccc(-c4cn5ccsc5[n+]4C)cc3)cc2)cn2ccsc21
- GI50 (U-251): > 100 µM (inactive)
- GI50 (HCT-116): > 100 µM (inactive)
- GI50 (TK-10): > 100 µM (inactive)
- GI50 (HT-29): 75.5 µM (inactive)
- GI50 (UACC-257): > 100 µM (inactive)
- GI50 (SF-268): > 100 µM (inactive)
- GI50 (KM12): > 100 µM (inactive)
- GI50 (HCC 2998): > 100 µM (inactive)
- GI50 (MCF7): > 100 µM (inactive)
- GI50 (SW-620): > 100 µM (inactive)
- GI50 (ACHN): > 100 µM (inactive)
- GI50 (MDA-MB-435): 37.7 µM (inactive)
- GI50 (PC-3): > 100 µM (inactive)
- GI50 (HL-60): > 100 µM (inactive)
- GI50 (IGROV-1): > 100 µM (inactive)
- GI50 (OVCAR-5): > 100 µM (inactive)
- GI50 (OVCAR-4): > 100 µM (inactive)
- GI50 (CCRF-CEM): 36.6 µM (inactive)
- GI50 (SF-295): > 100 µM (inactive)
- GI50 (COLO 205): > 100 µM (inactive)
- GI50 (A549): > 100 µM (inactive)
- GI50 (786-0): > 100 µM (inactive)
- GI50 (NCI-H522): > 100 µM (inactive)
- GI50 (SN12C): > 100 µM (inactive)
- GI50 (Hs-578T): > 100 µM (inactive)
- GI50 (UO-31): > 100 µM (inactive)
- GI50 (SNB-19): > 100 µM (inactive)
- GI50 (HCT-15): > 100 µM
- GI50 (SR): > 100 µM (inactive)
- GI50 (SK-OV-3): > 100 µM (inactive)
- GI50 (SK-MEL-28): > 100 µM (inactive)
- GI50 (NCI-H460): > 100 µM (inactive)
- GI50 (NCI/ADR-RES): > 100 µM (inactive)
- GI50 (K562): > 10 µM (inactive)
- GI50 (M14): > 100 µM (inactive)
- GI50 (MOLT-4): > 100 µM (inactive)
- GI50 (HOP-62): > 100 µM (inactive)
- GI50 (MDA-MB-231): > 100 µM (inactive)
- GI50 (SNB-75): > 100 µM (inactive)
- GI50 (OVCAR-8): > 100 µM (inactive)
- GI50 (SK-MEL-5): > 100 µM (inactive)
- GI50 (T47D): > 100 µM (inactive)
- GI50 (EKVX): > 100 µM (inactive)
- GI50 (MDA-N): 45.2 µM (inactive)
- GI50 (RPMI-8226): 62.1 µM (inactive)
- GI50 (SF-539): > 100 µM (inactive)

SMILES: COc1cc(OC)cc(Oc2nc3cc(N)cc(N)c3nc2-c2ccccc2)c1
- GI50 (TK-10): 1.73 µM (inactive)
- GI50 (DU-145): 4.52 µM (inactive)
- GI50 (ACHN): 4.25 µM (inactive)
- GI50 (PC-3): 3.85 µM (inactive)
- GI50 (786-0): 2.19 µM (inactive)
- GI50 (SN12C): 4.4 µM (inactive)
- GI50 (UO-31): 3.44 µM (inactive)
- GI50 (CAKI-1): 4.19 µM (inactive)
- GI50 (A498): 1.95 µM (inactive)
- GI50 (RXF 393): 1.02 µM (active)
- GI50 (RPMI-8226): 2.86 µM (inactive)
